Measured values from patent US5223539A, “N,N-Di-alkyl(phenoxy)benzamide derivatives” (G. D. Searle & Co., priority 1991, dated 1993).

Legend:
[1] = system: rabbit platelets; test: PAF-induced platelet secretion ([3H]serotonin); format: cell-based; conditions: Oryctolagus cuniculus, washed [3H]serotonin-labeled rabbit platelets, antagonist 60 sec before PAF, sampled 60 sec after PAF
Procedure: (§1) Washed, [^3 H]serotonin-labeled rabbit platelets were prepared as previously described in COX, C. P., J. LINDEN and S. I. SAID: VIP elevates platelet cyclic AMP (cAMP) levels and inhibits in vitro platelet activation induced by platelet- activating factor (PAF). Peptides 5:25-28, 1984, and maintained in an atmosphere of 5% CO2 at 37° C. until used in the bioassay. Aliquots of platelets (2.5×10^8 /ml) were incubated with either an antagonist of PAF or the appropriate vehicle for 60 sec prior to the addition of PAF (0.2 nM to 0.2 mM). Aggregation was continuously monitored on a strip-chart recorder and recorded as the height of the tracing at 60 sec after the addition of PAF. Secretion of [^3 H]serotonin was measured in a sample of the platelet suspension removed at 60 sec after the addition of PAF. The percent inhibition of aggregation and secretion was calculated by comparing antagonist-treated platelets with the appropriate vehicle-treated control platelets. Each combination of antagonist and PAF was repeated 12-15 times, using several different platelet preparations. IC50 values were determined by inspection of the dose-response curves.

[2] = system: rabbit platelets; test: PAF-induced platelet aggregation; format: cell-based; conditions: Oryctolagus cuniculus, washed rabbit platelets, antagonist 60 sec before PAF, tracing height 60 sec after PAF
Procedure: as §1

[3] = biological target: Human Platelet Membrane Receptors (PAF receptor) (Homo sapiens, UniProt P25105); conditions: for inhibition at 50 µM: read-out: Percent Inhibition of 3H-PAF binding at 50 μM
Human Platelet Membrane Receptors (PAF receptor), sequence (P25105 whole entry): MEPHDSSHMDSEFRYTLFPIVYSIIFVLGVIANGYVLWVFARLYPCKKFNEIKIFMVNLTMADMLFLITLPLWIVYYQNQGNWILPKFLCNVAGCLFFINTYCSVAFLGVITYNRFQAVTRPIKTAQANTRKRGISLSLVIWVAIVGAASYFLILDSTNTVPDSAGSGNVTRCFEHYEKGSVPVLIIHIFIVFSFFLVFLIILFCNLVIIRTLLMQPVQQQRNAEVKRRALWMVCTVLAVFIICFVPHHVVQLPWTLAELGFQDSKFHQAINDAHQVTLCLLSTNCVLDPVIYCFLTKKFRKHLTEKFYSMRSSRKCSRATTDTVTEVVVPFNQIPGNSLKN
Procedure: INHIBITION OF ^3 H-PAF BINDING TO HUMAN PLATELET MEMBRANE RECEPTORS
Ten units of in-dated human packed platelets, each containing 45-65 ml platelet rich-plasma, were purchased from a commercial blood bank. Disposable plasticware was used throughout for receptor preparation. The units were pooled and a 1 ml aliquot was removed for determination of platelet concentration, using a Coulter Counter. The remaining platelet rich plasma was dispensed into 50 ml conical tubes and centrifuged at room temperature for 15 minutes at 3000 RPM (2300×g). Plasma was decanted and the platelets were resuspended in 35 ml of buffer (10 mM Trizma 7.0, 2 mM EDTA (dipotassium salt), and 150 mM KCl) and transferred to fresh tubes, which were centrifuged again as above. The platelets were washed 3 times, avoiding contaminating erythrocytes at the bottom of the pellets. Pellets were consolidated at each step, and by the last wash with EDTA/KCl buffer, most of the erythrocytes were in 1 tube. The pellets were resuspended in buffer containing 10 mM Trizma 7.0 with 10 mM CaCl2. Following centrifugation, the buffer was decanted and the pellets were resuspended in the CaCl2 buffer, avoiding erythrocyte contamination by recovering less than 100% of the platelet pellets. The resuspended platelets were dispensed in 8-10 ml aliquots into Corex tubes and disrupted by three cycles of freezing (dry ice/ethanol) and thawing (24° C.). The tubes were centrifuged at 40,000 × g for 20 minutes at 4° C. Supernatants were decanted and each pellet was resuspended in 5-7 ml 10 mM Trizma 7.0. All resuspended pellets were pooled and aliquots of about 1200 ml were dispensed into 1.5 ml microfuge tubes and frozen at -70° C. Protein content was determined by a fluorescamine protein assay.
Assay Methods: Receptor Characterization--Each receptor preparation was evaluated to determine the number of receptor populations, the number of PAF receptor equivalents/mg protein and the dissociation constant (KD) for PAF binding This required 2-3 experiments in which the protein concentration was held constant and the ^3 H-PAF ligand concentration was varied from approximately 0.10-2.5 nM and the data was analyzed by Scatchard methodology. Total incubation volume was 250 ml for these procedures and incubations were conducted at 24° C. for 30 minutes. For further experimentation, total incubation volumes are 500 ml. Protein and ligand concentrations were adjusted to give 0.075 nM receptor equivalents in the presence of 0.75 nM ^3 H-PAF. Each receptor preparation was then used to determine the dose - response displacement relationship of unlabeled PAF and the PAF antagonist, triazolam.
Assay Methods: Routine Assay of Compounds--The compounds were weighed precisely and solubilized in quantities of DMSO such that a 5 ml aliquot in the incubate would deliver the desired compound concentration. Compounds tested for the first time in this assay were evaluated at a concentration of 50 mM in the incubation medium. […] Triazolam was always included in each screening assay as a compound inhibition control. […] Nonspecific binding control solution was made by drying to completion about 26.2 ml unlabeled PAF under a stream of argon. PAF was resolubilized in 1000 ml DMSO. When delivered in a 5 ml aliquot, the final concentration of 1 mM PAF in the incubate exceeded by 1000-fold the concentration of ^3 H-PAF.
All buffers containing proteins were made at room temperature on the day of assay. Assay buffer was prepared by adding 125 mg human albumin to 25 ml of stock buffer (10 mM Trizma 7.4 with 20 mM CaCl2). Rinse buffer was made by adding 20 grams bovine serum albumin to 1000 ml stock buffer. About 80 ml of rinse buffer was decanted into a small pyrex dish and used to soak 65 Whatman GF/C 2.5 cm glass filters. The remaining rinse buffer was poured into a repipet and placed into an ice bath along with the filters.

Row | SMILES | IC50 [1] [nM] | IC50 ([2]; 1 min) [nM] | IC50 [3] [nM] | inhibition of 3H-PAF binding by triazolam control at standard concentration ([3]; standard concentration of 50 mM (so in the source), 0.75 nM 3H-PAF) | inhibition at 50 µM [3] [%] | IC50 [2] [nM] | IC50 ([1]; 1 min) [nM]
1 | COc1cc(OC)cc(Oc2ccc(C(=O)N(C(C)C)C3CCCCC3)cc2)c1 [Example 12, N-cyclohexyl-4-(3,5-dimethoxyphenoxy)-N-(1-methylethyl)benzamide] | 142 | 1000 to 10000 | 2710 | – | – | – | –
2 | Cc1nnc2n1-c1ccc(Cl)cc1C(c1ccccc1Cl)=NC2 [Triazolam, triazolam, reference compound] | – | – | – | approximately 50% | – | – | –
3 | COc1ccc(C(O)c2ccc(C(=O)N(C3CCCCC3)C3CCCC3)cc2)cc1OC (stereo not drawn) [Example 9, N-cyclohexyl-N-cyclopentyl-4-[(3,4-dimethoxyphenyl)hydroxymethyl]benzamide] | 1490 | 1000 to 10000 | – | – | 61.9 | – | –
4 | COc1cccc(OCc2ccc(C(=O)N(C)C3CCCCC3)cc2)c1 [Example 22, N-cyclohexyl-4-[(3-methoxyphenoxy)methyl]-N-methylbenzamide] | > 10000 | 10000 to 100000 | 53200 | – | – | – | –
5 | COc1ccc(Oc2ccc(C(=O)N(C(C)C)C3CCCCC3)cc2)cc1 [Example 2, N-cyclohexyl-4-(4-methoxyphenoxy)-N-(1-methylethyl)benzamide] | 1120 | 1000 to 10000 | 22100 | – | – | – | –
6 | COc1cc(Oc2ccc(C(=O)N(C3CCCCC3)C3CCCC3)cc2)cc(OC)c1OC [Example 4, N-cyclohexyl-N-cyclopentyl-4-(3,4,5-trimethoxyphenoxy)benzamide] | 9.36 | 1000 to 10000 | 508 | – | – | – | –
7 | COc1ccc(Oc2ccc(C(=O)N(C3CCCCC3)C3CCCC3)cc2)cc1OC [Example 5, N-cyclohexyl-N-cyclopentyl-4-(3,4-dimethoxyphenoxy)benzamide] | 4010 | 1000 to 10000 | 1500 | – | – | – | –
8 | COc1ccc(C(O)c2ccc(C(=O)N(C(C)C)C3CCCCC3)cc2)cc1OC (stereo not drawn) [Example 8, N-cyclohexyl-4-[(3,4-dimethoxyphenyl)hydroxymethyl]-N-(1-methylethyl)benzamide] | 2570 | 10000 to 100000 | – | – | 44 | – | –
9 | COc1ccc(Cc2ccc(C(=O)N(C3CCCC3)C3CCCC3)cc2)cc1OC [Example 11, N,N-dicyclopentyl-4-[(3,4-dimethoxyphenyl)methyl]benzamide] | 114 | 1000 to 10000 | 1480 | – | – | – | –
10 | COc1cccc(OCc2ccc(C(=O)N(C(C)C)C3CCCCC3)cc2OC)c1 [Example 21, N-cyclohexyl-3-methoxy-4-[(3-methoxyphenoxy)methyl]-N-(1-methylethyl)benzamide] | – | – | 11200 | – | – | – | –
11 | COc1cc(Oc2ccc(C(=O)N(C3CCCCC3)C3CCCC3)cc2C)cc(OC)c1OC [Example 13, N-cyclohexyl-N-cyclopentyl-3-methyl-4-(3,4,5-trimethoxyphenoxy)benzamide] | 89.4 | – | 600 | – | – | < 1000 | –
12 | COc1cc(OC)c(OC)cc1Cc1ccc(C(=O)N(C2CCCCC2)C2CCCC2)cc1 [Example 17, N-cyclohexyl-N-cyclopentyl-4-[(2,4,5-trimethoxyphenyl)methyl]benzamide] | 632 | 1000 to 10000 | 3710 | – | – | – | –
13 | COc1cc(OCc2ccc(C(=O)N(C)C3CCCCC3)cc2)cc(OC)c1OC [Example 23, N-cyclohexyl-N-methyl-4-[(3,4,5-trimethoxyphenoxy)methyl]benzamide] | – | 10000 to 100000 | > 50000 | – | – | – | 10000 to 100000
14 | COc1cc(C(=O)c2ccc(C(=O)N(C(C)C)C3CCCCC3)cc2)cc(OC)c1OC [Example 16, N-cyclohexyl-N-(1-methylethyl)-4-(3,4,5-trimethoxybenzoyl)benzamide] | 103 | 100 to 1000 | – | – | – | – | –
15 | CC(C)N(C(=O)c1ccc(Oc2ccc3c(c2)OCO3)cc1)C1CCCCC1 [Example 18, N-cyclohexyl-4-(3,4-methylenedioxyphenoxy)-N-(1-methylethyl)benzamide] | 1990 | 1000 to 10000 | 8160 | – | – | – | –
16 | COc1cc(C(O)c2ccc(C(=O)N(C(C)C)C3CCCCC3)cc2)cc(OC)c1OC (stereo not drawn) [Example 14, N-cyclohexyl-4-[hydroxy(3,4,5-trimethoxyphenyl)methyl]-N-(1-methylethyl)benzamide] | 1810 | 100 to 1000 | – | – | 49.2 | – | –
17 | COc1ccc(C(O)c2ccc(C(=O)N(C3CCCC3)C3CCCC3)cc2)cc1OC (stereo not drawn) [Example 10, N,N-dicyclopentyl-4-[(3,4-dimethoxyphenyl) hydroxymethyl]benzamide] | – | – | – | – | 47 | > 10000 | 1000 to 10000
18 | COc1cc(Oc2ccc(C(=O)N(C(C)C)C3CCCCC3)cc2)cc(OC)c1OC [Example 1, N-cyclohexyl-N-(1-methylethyl)-4-(3,4,5-trimethoxyphenoxy)benzamide] | 8.9 | 10 to 100 | 133 | – | – | – | –
19 | COc1ccc(OCc2ccc(C(=O)N(C(C)C)C3CCCCC3)cc2OC)c(OC)c1 [Example 20, N-cyclohexyl-4-[(2,4-dimethoxyphenoxy)methyl]-3-methoxy-N-(1-methylethyl)benzamide] | – | – | – | – | 41 | – | –
20 | COc1ccc(Oc2ccc(C(=O)N(C3CCCC3)C3CCCC3)cc2)cc1OC [Example 7, N,N-dicyclopentyl-4-(3,4-dimethoxyphenoxy)benzamide] | 422 | 1000 to 10000 | 914 | – | – | – | –
21 | COc1cc(Cc2ccc(C(=O)N(C(C)C)C3CCCCC3)cc2)cc(OC)c1OC [Example 15, N-cyclohexyl-N-(1-methylethyl)-4-[(3,4,5-trimethoxyphenyl)methyl]benzamide] | 26.6 | 100 to 1000 | 425 | – | – | – | –
22 | COc1cc(C(=O)N(C(C)C)C2CCCCC2)ccc1Oc1cc(OC)c(OC)c(OC)c1 [Example 19, N-cyclohexyl-3-methoxy-N-(1-methylethyl)-4-(3,4,5-trimethoxyphenoxy)benzamide] | – | – | 995 | – | – | – | –
23 | COc1ccc(Oc2ccc(C(=O)N(C(C)C)C3CCCCC3)cc2)cc1OC [Example 6, N-cyclohexyl-4-(3,4-dimethoxyphenoxy)-N-(1-methylethyl)benzamide] | 85.9 | 100 to 1000 | 2010 | – | – | – | –
24 | COc1cccc(Oc2ccc(C(=O)N(C(C)C)C3CCCCC3)cc2)c1 [Example 3, N-cyclohexyl-4-(3-methoxyphenoxy)-N-(1-methylethyl)benzamide] | 750 | 1000 to 10000 | 10500 | – | – | – | –
